The results in this text go back to patent US9394284B2, “Compounds act at multiple prostaglandin receptors giving a general anti-inflammatory response” (Allergan, Inc., priority 2010, dated 2016).

SMILES strings stand for the structures. Bounds are passed on as bounds.

One may read the Kb as the affinity of an antagonist, worked out from how it opposes an agonist. A high value points to lower antagonist affinity.

Holding throughout (assay type): cell-based
The target in assay [1] is T1, human prostanoid EP4 receptor (Homo sapiens, UniProt P35408).
T1 construct: expressed in transfected cells
Kind of assay: FLIPR Ca2+ signaling antagonist assay, EP4 receptor stable cell line. Particulars: HEK-293 EBNA stable cell line; standard agonist PGE2; NA = inactive (no antagonism or Kb 10,000 nM); PAg, Ag not defined. On the procedure: (§1) The above compounds were tested for PG antagonist activity as follows using human recombinant prostanoid receptor (DP1, EP1-4, FP, IP and TP) stable cell lines:
(§2) In order to measure the response of Gs and Gi coupled prostanoid receptors as a Ca^2+ signal, chimeric G protein cDNAs were used. Stable cell lines over-expressing human prostanoid DP1, EP1-4, FP, IP, and TP receptors were established as follows:
(§3) Briefly, human prostanoid DP1, EP2, and EP4 receptor cDNAs were co-transfected with chimeric Gqs cDNA containing a haemagglutanin (HA) epitope; human prostanoid EP3 receptors were co-transfected with chimeric Gqi-HA; human EP1, FP, IP, and TP receptor cDNAs were expressed with no exogenous G-proteins. Gqs and Gqi chimeric cDNAs (Molecular Devices, Sunnyvale, Calif., U.S.A.), as well as cDNAs of prostanoid receptors, were cloned into a pCEP4 vector with a hygromycin B selection marker. Transfection into HEK-293 EBNA (Epstein-Barr virus nuclear antigen) cells was achieved by the FuGENE 6 transfection Reagent (Roche Applied Science, Indianapolis, Ind., USA). Stable transfectants were selected according to hygromycin resistance. Because Gqs and Gqi contained an HA epitope, G-protein expression was detected by Western blotting analysis using anti-mouse HA monoclonal antibody and horseradish peroxidase (HRP)-conjugated secondary antibody, while functional expression of prostanoid receptors was detected by FLIPR screening (Matias et al., 2004). These stable cell lines were validated using previously published antagonists at 10 μM against serial dilutions of standard agonists by FLIPR functional assays for Ca^2+ Signaling (as described below).
(§4) Ca^2+ signaling studies were performed using a FLIPR TETRA system (Molecular Devices, Sunnyvale, Calif., USA) in the 384-format. This is a high-throughput instrument for cell-based assays to monitor Ca^2+ signaling associated with GPCRs and ion channels. Cells were seeded at a density of 5×10^4 cells/well in BioCoat poly-D-lysine coated, black wall, clear bottom 384-well plates (BD Biosciences, Franklin lakes, NJ, USA) and allowed to attach overnight in an incubator at 37° C. The cells were then washed twice with HBSS-HEPES buffer (Hanks' balanced salt solution without bicarbonate and phenol red, 20 mM HEPES, pH 7.4) using an ELx405 Select CW Microplate Washer (BioTek, Winooski, Vt., USA). After 60 min of dye-loading in the dark using the Ca^2+-sensitive dye Fluo-4AM (Invitrogen, Carlsbad, Calif., USA), at a final concentration of 2×10^−6M, the plates were washed 4 times with HBSS-HEPES buffer to remove excess dye and leaving 50 μl of buffer in each well. The plates were then placed in the FLIPR TETRA instrument and allowed to equilibrate at 37° C. AGN-211377 was added in a 25 μl volume to each well to give final concentrations of 0.1 μM, 0.3 μM, 1 μM, 3 μM, 10 μM, and 30 μM; or 0.067 μM, 0.1 μM, 0.2 μM, 0.3 μM, 0.67 μM, and 1 μM for cells over-expressing TP receptors. After 4.5 minutes, a 7-point serial dilution of the standard agonist for the corresponding receptor, in a 25 μl volume was injected at the final concentrations from 10^−11M to 10^−5M in 10-fold serial dilution increments for cells expressing human recombinant DP1, EP1, EP2, EP3, EP4, FP, and IP receptors. The dose range for the standard agonist for human recombinant TP receptors was from 10^−12 M to 10^−6 M. HBSS-HEPES buffer was used as the negative control for the standard agonists. Cells were excited with LED (light emitting diode) excitation at 470-495 nm and emission was measured through an emission filter at 515-575 nm. Assay plates were read for 3.5 minutes using the FLIPR^TETRA. The peak increase in fluorescence intensity was recorded for each well. On each plate, negative controls, dose response of positive controls, and co-treatments of antagonist-agonist for each dose were in triplicates.
(§5) Standard agonists were as follows: DP=BW 245C, EP1-EP4=PGE2, FP=17-phenyl-PGF2α, IP=Cicaprost, and TP=U-46619. […]

Assay [2] deals with T2, human prostanoid IP receptor (Homo sapiens, UniProt P43119).
T2 construct: expressed in transfected cells
Description: FLIPR Ca2+ signaling antagonist assay, IP receptor stable cell line. Particulars: HEK-293 EBNA stable cell line; standard agonist Cicaprost; NA = inactive (no antagonism or Kb 10,000 nM); PAg, Ag not defined. On the procedure: as §1, §2, §3, §4, §5

In assay [3] the target is T3, human prostanoid EP1 receptor (Homo sapiens, UniProt P34995).
T3 construct: expressed in transfected cells
T3 sequence (P34995 1-402): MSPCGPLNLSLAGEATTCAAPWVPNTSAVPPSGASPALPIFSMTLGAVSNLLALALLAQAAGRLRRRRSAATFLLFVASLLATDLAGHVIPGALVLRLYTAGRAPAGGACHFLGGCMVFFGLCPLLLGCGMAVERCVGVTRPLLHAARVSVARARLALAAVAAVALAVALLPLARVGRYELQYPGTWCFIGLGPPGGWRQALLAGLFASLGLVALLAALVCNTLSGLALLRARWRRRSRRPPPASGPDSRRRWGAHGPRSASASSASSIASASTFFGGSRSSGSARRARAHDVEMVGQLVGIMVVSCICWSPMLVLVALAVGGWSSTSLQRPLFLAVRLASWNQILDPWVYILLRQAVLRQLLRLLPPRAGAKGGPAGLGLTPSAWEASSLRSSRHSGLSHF
Description: FLIPR Ca2+ signaling antagonist assay, EP1 receptor stable cell line. Particulars: HEK-293 EBNA stable cell line; standard agonist PGE2; NA = inactive (no antagonism or Kb 10,000 nM); PAg, Ag not defined. Here is the method:
as §1, §2, §3, §4, §5

Assay [4] addresses T4, human prostanoid TP receptor (Homo sapiens, UniProt P21731).
T4 construct: expressed in transfected cells
T4 sequence (P21731 1-343): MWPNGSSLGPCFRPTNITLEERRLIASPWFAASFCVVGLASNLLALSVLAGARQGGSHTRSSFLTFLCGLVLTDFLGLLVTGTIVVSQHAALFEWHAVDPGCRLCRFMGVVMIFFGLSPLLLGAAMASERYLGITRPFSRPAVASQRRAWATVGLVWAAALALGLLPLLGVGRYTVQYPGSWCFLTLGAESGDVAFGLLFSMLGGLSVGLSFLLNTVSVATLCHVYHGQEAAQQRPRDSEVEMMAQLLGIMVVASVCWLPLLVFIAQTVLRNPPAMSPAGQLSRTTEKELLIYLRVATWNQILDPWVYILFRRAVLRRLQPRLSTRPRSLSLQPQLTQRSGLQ
Description: FLIPR Ca2+ signaling antagonist assay, TP receptor stable cell line. The settings on record: HEK-293 EBNA stable cell line; standard agonist U-46619; NA = inactive (no antagonism or Kb 10,000 nM); PAg, Ag not defined. Here is the method:
as §1, §2, §3, §4, §5

Assay [5] addresses T5, human prostanoid FP receptor (Homo sapiens, UniProt P43088).
T5 construct: expressed in transfected cells
Description: FLIPR Ca2+ signaling antagonist assay, FP receptor stable cell line. The settings on record: HEK-293 EBNA stable cell line; standard agonist 17-phenyl-PGF2α; NA = inactive (no antagonism or Kb 10,000 nM); PAg, Ag not defined. On the procedure:
as §1, §2, §3, §4, §5

The target in assay [6] is T6, human prostanoid DP1 receptor (Homo sapiens, UniProt Q13258).
T6 construct: expressed in transfected cells
T6 sequence (Q13258 1-359): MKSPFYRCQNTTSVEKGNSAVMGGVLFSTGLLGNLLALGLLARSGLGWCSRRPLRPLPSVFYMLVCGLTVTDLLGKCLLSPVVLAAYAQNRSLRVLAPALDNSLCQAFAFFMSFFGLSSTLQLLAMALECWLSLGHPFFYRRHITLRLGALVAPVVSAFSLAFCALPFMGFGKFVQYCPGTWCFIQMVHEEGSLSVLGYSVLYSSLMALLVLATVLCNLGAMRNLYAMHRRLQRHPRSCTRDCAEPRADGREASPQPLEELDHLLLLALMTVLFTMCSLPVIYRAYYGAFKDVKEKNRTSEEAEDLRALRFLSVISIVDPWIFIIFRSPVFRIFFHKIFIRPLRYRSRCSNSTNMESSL
Description: FLIPR Ca2+ signaling antagonist assay, DP1 receptor stable cell line. The settings on record: HEK-293 EBNA stable cell line; standard agonist BW 245C; NA = inactive (no antagonism or Kb 10,000 nM); PAg, Ag not defined. Here is the method: as §1, §2, §3, §4, §5

T1 sequence (P35408 whole entry): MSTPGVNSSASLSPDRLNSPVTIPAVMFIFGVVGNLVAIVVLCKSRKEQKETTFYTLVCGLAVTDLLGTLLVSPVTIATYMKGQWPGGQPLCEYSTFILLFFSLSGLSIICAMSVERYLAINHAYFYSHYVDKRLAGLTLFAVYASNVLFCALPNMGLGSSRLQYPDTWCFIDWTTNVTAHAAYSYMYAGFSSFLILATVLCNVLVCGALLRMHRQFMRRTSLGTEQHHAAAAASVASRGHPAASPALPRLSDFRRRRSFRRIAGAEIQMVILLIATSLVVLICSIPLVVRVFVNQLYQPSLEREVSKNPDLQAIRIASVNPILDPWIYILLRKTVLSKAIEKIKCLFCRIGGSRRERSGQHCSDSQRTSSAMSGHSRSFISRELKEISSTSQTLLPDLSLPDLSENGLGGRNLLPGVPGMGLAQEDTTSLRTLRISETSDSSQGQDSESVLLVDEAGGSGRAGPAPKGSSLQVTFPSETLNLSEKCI
T2 sequence (P43119 whole entry): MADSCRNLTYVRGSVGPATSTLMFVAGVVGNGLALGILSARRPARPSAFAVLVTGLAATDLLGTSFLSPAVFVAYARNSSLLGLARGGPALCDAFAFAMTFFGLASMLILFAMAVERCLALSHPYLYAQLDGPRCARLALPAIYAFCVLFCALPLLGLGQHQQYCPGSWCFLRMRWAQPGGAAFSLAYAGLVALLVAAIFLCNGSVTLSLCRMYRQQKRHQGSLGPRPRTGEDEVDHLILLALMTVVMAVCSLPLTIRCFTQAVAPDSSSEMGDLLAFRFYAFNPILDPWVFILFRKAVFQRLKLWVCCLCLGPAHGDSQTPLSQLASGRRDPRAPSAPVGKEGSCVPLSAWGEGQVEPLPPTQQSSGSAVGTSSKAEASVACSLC
T5 sequence (P43088 whole entry): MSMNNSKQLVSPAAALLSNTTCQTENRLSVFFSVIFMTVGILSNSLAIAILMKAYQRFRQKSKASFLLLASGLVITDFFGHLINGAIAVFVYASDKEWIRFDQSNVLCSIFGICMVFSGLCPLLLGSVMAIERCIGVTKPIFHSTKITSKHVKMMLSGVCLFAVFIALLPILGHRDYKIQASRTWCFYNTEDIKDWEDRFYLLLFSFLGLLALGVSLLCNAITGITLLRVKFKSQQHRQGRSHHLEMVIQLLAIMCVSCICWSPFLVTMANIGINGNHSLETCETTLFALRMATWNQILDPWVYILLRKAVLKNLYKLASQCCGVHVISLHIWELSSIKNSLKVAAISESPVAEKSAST

`Cc1cc(CCC(=O)O)nn1Cc1cc(Cl)ccc1OCC1CCCCC1` [Example 34, 3-[1-(5-Chloro-2-(cyclohexyl-methoxy)benzyl)-5-methyl-1H-pyrazol-3-yl]-propionic acid]: the Kb came out at 2500 nM in assay [1], 200 nM in assay [5] and 240 nM in assay [6]. For the same compound, the “IP (FLIPR) Kb” value in assay [2] is listed as “Ag”. Also, the “EP1 (FLIPR) Kb” value in assay [3] was “Ag”. The “TP (FLIPR) Kb” value in assay [4] was “Ag”.

`CCC(CC)COc1ccc(C#N)cc1Cn1nc(CCC(=O)O)cc1C` [Example 60, 3-{1-[5-Cyano-2-(2-ethyl-butoxy)-benzyl]-5-methyl-1H-pyrazol-3-yl}-propionic acid]: the Kb worked out at 2400 nM in assay [1]; 5400 nM in assay [2]; 2100 nM in assay [3]; 120 nM in assay [4]; 1400 nM in assay [5]; 4400 nM in assay [6].

For `CCC(CC)COc1ccc(Br)cc1Cn1ccc(CCC(=O)O)n1` [Example 59, 3-{1-[5-Bromo-2-(2-ethyl-butoxy)-benzyl]-1H-pyrazol-3-yl}-propionic acid], the Kb amounted to 100 nM in assay [1]; 2700 nM in assay [2]; 160 nM in assay [3]; 1 nM in assay [4]; 1200 nM in assay [5]; 300 nM in assay [6].

As to `CCC(CC)COc1ccc(C(F)(F)F)cc1Cn1nc(CCC(=O)O)cc1C` [Example 46, 3-[1-[2-(2-Ethyl-butoxy)-5-trifluoromethyl-benzyl]-5-methyl-1H-pyrazol-3-yl]-propionic acid], the Kb amounted to 170 nM in assay [1]; 2100 nM in assay [2]; 40 nM in assay [3]; 3 nM in assay [4]; 240 nM in assay [5]; 700 nM in assay [6].

Consider `C/C=C(\C)COc1ccc(Br)cc1Cn1nc(CCC(=O)O)cc1C` [Example 9, 3-[1-(5-Bromo-2-((E)-2-methyl-but-2-enyloxy)-benzyl)-5-methyl-1H-pyrazol-3-yl]-propionic acid], for which the antagonist dissociation constant (Kb) came out at 600 nM in assay [1]; 4800 nM in assay [2]; 11 nM in assay [3]; 2 nM in assay [4]; 400 nM in assay [5]; 750 nM in assay [6].

For the compound `CCC(CC)COc1ccc(C(C)(C)C)cc1Cn1nc(CCC(=O)O)cc1C` [Example 49, 3-[1-[2-(2-Ethyl-butoxy)-5-tert-butyl-benzyl]-5-methyl-1H-pyrazol-3-yl]-propionic acid], the Kb came to 1800 nM in assay [1]; 2500 nM in assay [2]; 40 nM in assay [3]; 24 nM in assay [4]; 1700 nM in assay [5]; 270 nM in assay [6].

Turning to `CCC(C)CCOc1ccc(Cl)cc1Cn1nc(CCC(=O)O)cc1C` (stereo not drawn) [Example 22, 3-[1-(5-Chloro-2-(3-methylpentyloxy)benzyl)-5-methyl-1H-pyrazol-3-yl]-propionic acid], the Kb in assay [1] is 600 nM; in assay [2], 5200 nM; in assay [3] it was 140 nM; in assay [4], less than 1 nM; in assay [5] it was 90 nM; in assay [6], 340 nM.

Take `Cc1cc(CCC(=O)O)nn1Cc1cc(Cl)ccc1CCC1CCCC1` [Example 74]: the antagonist dissociation constant (Kb) worked out at 3300 nM in assay [1]; 2200 nM in assay [2]; 1300 nM in assay [3]; 190 nM in assay [4]; 3500 nM in assay [5]; 600 nM in assay [6].

Take `Cc1cc(CCC(=O)O)nn1Cc1cc(Cl)ccc1C#CCC(C)C` [Example 76, 3-{1-[5-Chloro-2-(4-methylpentynyl)-benzyl]-5-methyl-1H-pyrazol-3-yl}-propionic acid]: the Kb in assay [1] came to 1200 nM; in assay [2], 4500 nM; in assay [3], 200 nM; in assay [4] it was 7 nM; in assay [5] it was 160 nM. For the same compound, the “DP1 (FLIPR) Kb” value in assay [6] is “PAg”.

Turning to `COc1ccc(OCC2CCCC2)c(Cn2nc(CCC(=O)O)cc2C)c1` [Example 53, 3-[1-(2-Cyclopentylmethoxy-5-methoxy-benzyl)-5-methyl-1H-pyrazol-3-yl]-propionic acid], the Kb in assay [1] stood at 1890 nM; in assay [2], 6900 nM; in assay [3] it was 600 nM; in assay [4] it was 700 nM; in assay [5], 1900 nM; in assay [6], 1500 nM.

On to `Cc1cc(CCC(=O)O)nn1Cc1cc(Cl)ccc1OCC1(C(F)(F)F)CCC1` [Example 38, 3-[1-(5-Chloro-2-(1-trifluoromethylcyclobutylmethoxy)benzyl)-5-methyl-1H-pyrazol-3-yl]-propionic acid], for which the Kb in assay [1] worked out at 3600 nM; in assay [2], 6000 nM; in assay [3] it was 140 nM; in assay [4], 8 nM; in assay [5] it was 600 nM; in assay [6], 1900 nM.
